Data published in patent publication US9226500B2, “Pesticidal compositions and processes related thereto” (Dow AgroSciences LLC, priority 2012, dated 2016).

Assays:
[1] = tested on: Beet Armyworm (Spodoptera exigua); assay: Bioassay on Beet Armyworm (BAW), 128-well diet tray assay; assay type: in vivo; details: for pest or weed control at 50 µg/cm2, 50 µg/cm2: Spodoptera exigua, 168 h, percent mortality of second instar larvae, 50 μg/cm^2 on artificial diet, five to seven days, 25° C., read-out: BAW Rating; for BAW Rating: Table 3, Assays Results Part 1
[2] = tested on: Cabbage Looper (Trichoplusia ni); assay: Bioassay on Cabbage Looper (CL), 128-well diet tray assay; assay type: in vivo; details: 168 h, percent mortality of second instar larvae, 50 μg/cm^2 on artificial diet, five to seven days, 25° C., read-out: CL Rating
Description: Certain molecules disclosed in this document were tested against BAW, CEW and CL using procedures described in the following examples. In the reporting of the results, the “BAW & CEW & CL Rating Table” was used (See Table Section).
Bioassays on CL (Trichoplusia ni)
Bioassays on CL were conducted using a 128-well diet tray assay. One to five second instar CL larvae were placed in each well (3 mL) of the diet tray that had been previously filled with 1 mL of artificial diet to which 50 μg/cm^2 of the test compound (dissolved in 50 μL of 90:10 acetone-water mixture) had been applied (to each of eight wells) and then allowed to dry. Trays were covered with a clear self-adhesive cover, and held at 25° C., 14:10 light-dark for five to seven days. Percent mortality was recorded for the larvae in each well; activity in the eight wells was then averaged.
“Table 4: Assay Results Part 2” (See Table Section).

Row | SMILES | pest or weed control at 50 µg/cm2, 50 µg/cm2 [1] | pest or weed control at 50 µg/cm2, 50 µg/cm2 [2] | BAW Rating [1]
1 | C[C@@H](NC(=O)c1ccc(/C=C/C(c2cc(Cl)c(Cl)c(Cl)c2)C(F)(F)F)cc1C(F)(F)F)C(=O)NCC(F)(F)F (mixture of isomers) [Compound F20] | 50 to 100% | 50 to 100% | 
2 | CC(C)(NC(=O)c1ccc(/C=C/C(c2cc(Cl)c(Cl)c(Cl)c2)C(F)(F)F)cc1Cl)C(=O)NCC(F)(F)F (centres unmarked) [Compound F2] | 50 to 100% | 50 to 100% | 
3 | Cc1cc(/C=C/C(c2cc(Cl)c(Cl)c(Cl)c2)C(F)(F)F)ccc1C(=O)NC(C)(C)C(=O)NCC(F)(F)F (centres unmarked) [Compound F3] | 50 to 100% | 50 to 100% | 
4 | CC(C)(NC(=O)c1ccc(/C=C/C(c2cc(Cl)c(Cl)c(Cl)c2)C(F)(F)F)cc1C(F)(F)F)C(=O)NCC(F)(F)F (centres unmarked) [Compound F4] | 50 to 100% | 50 to 100% | 
5 | C[C@H](NC(=O)c1ccc(/C=C/C(c2cc(Cl)c(Cl)c(Cl)c2)C(F)(F)F)cc1Br)C(=O)NCC(F)(F)F (some centres unmarked) [Compound F5] | 50 to 100% | 50 to 100% | 
6 | C[C@@H](NC(=O)c1ccc(/C=C/C(c2cc(Cl)c(Cl)c(Cl)c2)C(F)(F)F)cc1Br)C(=O)NCC(F)(F)F (some centres unmarked) [Compound F6] | 50 to 100% | 50 to 100% | 
7 | Cc1cc(/C=C/C(c2cc(Cl)c(Cl)c(Cl)c2)C(F)(F)F)ccc1C(=O)N[C@H](C)C(=O)NCC(F)(F)F (some centres unmarked) [Compound F7] | 50 to 100% | 50 to 100% | 
8 | CCC(NC(=O)c1ccc(/C=C/C(c2cc(Cl)c(Cl)c(Cl)c2)C(F)(F)F)cc1Br)C(=O)NCC(F)(F)F (centres unmarked) [Compound F8A] | 50 to 100% | 50 to 100% | 
9 | CC[C@H](NC(=O)c1ccc(/C=C/C(c2cc(Cl)c(Cl)c(Cl)c2)C(F)(F)F)cc1Br)C(=O)NCC(F)(F)F (some centres unmarked) [Compound F8] | 50 to 100% | 50 to 100% | 
10 | Cc1cc(/C=C/C(c2cc(Cl)c(Cl)c(Cl)c2)C(F)(F)F)ccc1C(=O)N[C@@H](C)C(=O)NCC(F)(F)F (some centres unmarked) [Compound F9] | 50 to 100% | 50 to 100% | 
11 | C[C@@H](NC(=O)c1ccc(/C=C/C(c2cc(C(F)(F)F)cc(C(F)(F)F)c2)C(F)(F)F)cc1Br)C(=O)NCC(F)(F)F (some centres unmarked) [Compound F14] | 50 to 100% | 50 to 100% | 
12 | CCC(NC(=O)c1ccc(/C=C/C(c2cc(Cl)c(Cl)c(Cl)c2)C(F)(F)F)cc1C)C(=O)NCC(F)(F)F (centres unmarked) [Compound F15A] | 50 to 100% | 50 to 100% | 
13 | CC[C@H](NC(=O)c1ccc(/C=C/C(c2cc(Cl)c(Cl)c(Cl)c2)C(F)(F)F)cc1C)C(=O)NCC(F)(F)F (some centres unmarked) [Compound F15] | 50 to 100% | 50 to 100% | 
14 | CCC(NC(=O)c1ccc(/C=C/C(c2cc(Cl)c(Cl)c(Cl)c2)C(F)(F)F)cc1C(F)(F)F)C(=O)NCC(F)(F)F (centres unmarked) [Compound F16A] | 50 to 100% | 50 to 100% | 
15 | CC[C@H](NC(=O)c1ccc(/C=C/C(c2cc(Cl)c(Cl)c(Cl)c2)C(F)(F)F)cc1C(F)(F)F)C(=O)NCC(F)(F)F (some centres unmarked) [Compound F16] | 50 to 100% | 50 to 100% | 
16 | Cc1cc(/C=C/C(c2cc(Br)cc(Br)c2)C(F)(F)F)ccc1C(=O)N[C@H](C)C(=O)NCC(F)(F)F (some centres unmarked) [Compound F17] | 50 to 100% | 50 to 100% | 
17 | C[C@H](NC(=O)c1ccc(/C=C/C(c2cc(Cl)c(Cl)c(Cl)c2)C(F)(F)F)cc1C(F)(F)F)C(=O)NCC(F)(F)F (some centres unmarked) [Compound F18] | 50 to 100% | 50 to 100% | 
18 | C[C@@H](NC(=O)c1ccc(/C=C/C(c2cc(Br)cc(Br)c2)C(F)(F)F)cc1Br)C(=O)NCC(F)(F)F (some centres unmarked) [Compound F19] | 50 to 100% | 50 to 100% | 
19 | C[C@@H](NC(=O)c1ccc(/C=C/[C@@H](c2cc(Cl)c(Cl)c(Cl)c2)C(F)(F)F)cc1C(F)(F)F)C(=O)NCC(F)(F)F [Compound F20B, N—((R)-1-Oxo-1-((2,2,2-trifluoroethyl)amino)propan-2-yl)-4-((E)-4,4,4-trifluoro-3-(3,4,5-trichlorophenyl)but-1-en-1-yl)-2-(trifluoromethyl)benzamide] | 50 to 100% | 50 to 100% | 
20 | C[C@@H](NC(=O)c1ccc(/C=C\C(c2cc(Cl)c(Cl)c(Cl)c2)C(F)(F)F)cc1C(F)(F)F)C(=O)NCC(F)(F)F (some centres unmarked) [Compound F20C] | 50 to 100% | 50 to 100% | 
21 | CC[C@H](NC(=O)c1ccc(/C=C/C(c2cc(Cl)c(Cl)c(Cl)c2)C(F)(F)F)cc1Cl)C(=O)NCC(F)(F)F (some centres unmarked) [Compound F23] |  | 50 to 100% | 
22 | N#Cc1cc(/C=C/C(c2cc(Cl)c(F)c(Cl)c2)C(F)(F)F)ccc1-n1cncn1 (centres unmarked) [DC35] |  |  | A (50-100)
23 | N#Cc1cc(/C=C/C(c2cc(Cl)cc(Cl)c2)C(F)(F)F)ccc1-n1cnc([N+](=O)[O-])n1 (centres unmarked) [DC37] |  |  | A (50-100)

Row | SMILES | pest or weed control at 50 µg/cm2, 50 µg/cm2 [1] | pest or weed control at 50 µg/cm2, 50 µg/cm2 [2] | BAW Rating [1]
24 | N#Cc1cc(/C=C/C(c2cc(Cl)cc(Cl)c2)C(F)(F)F)ccc1-n1cnc(N)n1 (centres unmarked) [DC38] |  |  | A (50-100)
25 | CC(=O)Nc1ncn(-c2ccc(/C=C/C(c3cc(Cl)cc(Cl)c3)C(F)(F)F)cc2C#N)n1 (centres unmarked) [DC39] |  |  | A (50-100)
26 | N#Cc1cc(/C=C/C(c2cc(Cl)c(Cl)c(Cl)c2)C(F)(F)F)ccc1-n1cnc([N+](=O)[O-])n1 (centres unmarked) [DC40, (E)-2-(3-Nitro-1H-1,2,4-triazol-1-yl)-5-(4,4,4-trifluoro-3-(3,4,5-trichlorophenyl)but-1-en-1-yl)benzonitrile] |  |  | A (50-100)
27 | N#Cc1cc(/C=C/C(c2cc(Cl)c(Cl)c(Cl)c2)C(F)(F)F)ccc1-n1cnc(N)n1 (centres unmarked) [DC41, (E)-2-(3-Amino-1H-1,2,4-triazol-1-yl)-5-(4,4,4-trifluoro-3-(3,4,5-trichlorophenyl)but-1-en-1-yl)benzonitrile] |  |  | A (50-100)
28 | N#Cc1cc(/C=C/C(c2cc(Cl)c(Cl)c(Cl)c2)C(F)(F)F)ccc1-n1cnc(N(C(=O)C2CC2)C(=O)C2CC2)n1 (centres unmarked) [DC42, (E)-N-(1-(2-Cyano-4-(4,4,4-trifluoro-3-(3,4,5-trichlorophenyl)but-1-en-1-yl)phenyl)-1H-1,2,4-triazol-3-yl)-N-(cyclopropanecarbonyl)cyclopropanecarboxamide] |  |  | A (50-100)
29 | N#Cc1cc(/C=C/C(c2cc(Cl)c(Cl)c(Cl)c2)C(F)(F)F)ccc1-n1cnc(NC(=O)C2CC2)n1 (centres unmarked) [DC43, (E)-N-(1-(2-Cyano-4-(4,4,4-trifluoro-3-(3,4,5-trichlorophenyl)but-1-en-1-yl)phenyl)-1H-1,2,4-triazol-3-yl)cyclopropanecarboxamide] |  |  | A (50-100)
30 | Cc1cc(/C=C/C(c2cc(Cl)cc(Cl)c2)C(F)(F)F)cc(C#N)c1-n1cncn1 (centres unmarked) [DC44] |  |  | A (50-100)
31 | Cc1cc(/C=C/C(c2cc(Cl)c(Cl)c(Cl)c2)C(F)(F)F)cc(C#N)c1-n1cncn1 (centres unmarked) [DC45] |  |  | A (50-100)
32 | N#Cc1cc(/C=C\C(c2cc(Cl)c(F)c(Cl)c2)C(F)(F)F)ccc1-n1cncn1 (centres unmarked) [DC46] |  |  | A (50-100)
33 | FC(F)(F)C(/C=C/c1ccc(-n2cncn2)c(Br)c1)c1cc(Cl)cc(Cl)c1 (centres unmarked) [DC47] |  |  | A (50-100)
34 | Fc1cc(/C=C/C(c2cc(Cl)cc(Cl)c2)C(F)(F)F)ccc1-n1cncn1 (centres unmarked) [DC48] |  |  | A (50-100)
35 | FC(F)(F)C(/C=C/c1ccc(-n2cncn2)c(Cl)c1)c1cc(Cl)c(Cl)c(Cl)c1 (centres unmarked) [DC49] |  |  | A (50-100)
36 | FC(F)(F)C(/C=C/c1ccc(-n2cncn2)c(Cl)c1)c1cc(Cl)cc(Cl)c1 (centres unmarked) [DC50] |  |  | A (50-100)
37 | FC(F)(F)c1cc(/C=C/C(c2cc(Cl)cc(Cl)c2)C(F)(F)F)ccc1-n1cncn1 (centres unmarked) [DC51] |  |  | A (50-100)
38 | CNc1cc(/C=C/C(c2cc(Cl)cc(Cl)c2)C(F)(F)F)ccc1-n1cncn1 (centres unmarked) [DC57, (E)-5-(3-(3,5-Dichlorophenyl)-4,4,4-trifluorobut-1-en-1-yl)-N-methyl-2-(1H-1,2,4-triazol-1-yl)aniline] |  |  | A (50-100)
39 | CCOC(=O)c1cc(/C=C/C(c2cc(Cl)cc(Cl)c2)C(F)(F)F)ccc1-n1cncn1 (centres unmarked) [DC60] |  |  | A (50-100)
40 | Cc1cc(/C=C/C(c2cc(Cl)cc(Cl)c2)C(F)(F)F)ccc1-n1cncn1 (centres unmarked) [DC62] |  |  | A (50-100)
41 | Cc1cc(/C=C/C(c2cc(Cl)c(Cl)c(Cl)c2)C(F)(F)F)ccc1-n1cncn1 (centres unmarked) [DC63] |  |  | A (50-100)
42 | FC(F)(F)C(/C=C/c1ccc(-n2cncn2)cc1Cl)c1cc(Cl)c(Cl)c(Cl)c1 (centres unmarked) [DC66] |  |  | A (50-100)
43 | FC(F)(F)C(/C=C/c1ccc(-n2cncn2)cc1Cl)c1cc(Cl)cc(Cl)c1 (centres unmarked) [DC67] |  |  | A (50-100)
44 | C/C(=C\C(c1cc(Cl)cc(Cl)c1)C(F)(F)F)c1ccc(-n2cncn2)cc1 (centres unmarked) [DC68, (E)-1-(4-(4-(3,5-Dichlorophenyl)-5,5,5-trifluoropent-2-en-2-yl)phenyl)-1H-1,2,4-triazole] |  |  | A (50-100)
45 | COC(/C=C/c1ccc(-n2cncn2)cc1)(c1cc(Cl)cc(Cl)c1)C(F)(F)F (centres unmarked) [DC70, (E)-1-(4-(3-(3,5-Dichlorophenyl)-4,4,4-trifluoro-3-methoxybut-1-en-1-yl)phenyl)-1H-1,2,4-triazole] |  |  | A (50-100)
